In US20230017045A1, “PYRIDINE AND PYRIMIDINE CARBOXYLATE HERBICIDES AND METHODS OF USE THEREOF” (Dow AgroSciences LLC, priority 2017, published 2023):
Like-named read-outs stand apart in the source and are kept apart here.

System: test plant species
Assay: Post-emergent herbicidal activity test (greenhouse, foliar spray, visual growth reduction)
Type: in vivo
Conditions: post-emergence, 336 h, 140 g ai/ha
How it was run: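 Plants grown in greenhouse (15 h photoperiod, 23-29° C day/22-28° C night) to first or second true leaf stage were sprayed overhead with compound in acetone/water/isopropanol/DMSO/crop oil/X-77 carrier at 187 L/ha. Injury was scored visually after 14 d on a 0-100% scale versus solvent-blank and untreated controls.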

[1] = ECHCG: barnyardgrass (Echinochloa crus-galli), 14 days after application, read-out: Visual Growth Reduction (%) 14 Days After Application, ECHCG
[2] = IPOHE: ivy-leaf morning glory (Ipomoea hederacea), 14 days after application, read-out: Visual Growth Reduction (%) 14 Days After Application, IPOHE
[3] = KCHSC: kochia (Bassia scoparia), 14 days after application, read-out: Visual Growth Reduction (%) 14 Days After Application, KCHSC
[4] = ORYSA: rice (Oryza sativa), 14 days after application, read-out: Visual Growth Reduction (%) 14 Days After Application, ORYSA
[5] = SETFA: giant foxtail (Setaria faberi), 14 days after application, read-out: Visual Growth Reduction (%) 14 Days After Application, SETFA
[6] = SORVU: grain sorghum (Sorghum vulgare), 14 days after application, read-out: Visual Growth Reduction (%) 14 Days After Application, SORVU
[7] = STEME: common chickweed (Stellaria media), 14 days after application, read-out: Visual Growth Reduction (%) 14 Days After Application, STEME
[8] = TRZAS: wheat, spring (Triticum aestivum), 14 days after application, read-out: Visual Growth Reduction (%) 14 Days After Application, TRZAS
[9] = blackgrass (Alopecurus myosuroides), 14 Days After Application, read-out: Visual Growth Reduction (%) ALOMY
[10] = canada thistle (Cirsium arvense), 14 Days After Application, read-out: Visual Growth Reduction (%) CIRAR
[11] = crabgrass (Digitaria sanguinalis), 14 Days After Application, read-out: Visual Growth Reduction (%) DIGSA
[12] = lambsquarters (Chenopodium album), 14 Days After Application, read-out: Visual Growth Reduction (%) CHEAL
[13] = redroot pigweed (Amaranthus retroflexus), 14 Days After Application, read-out: Visual Growth Reduction (%) AMARE
[14] = wild oat (Avena fatua), 14 Days After Application, read-out: Visual Growth Reduction (%) AVEFA
[15] = yellow nutsedge (Cyperus esculentus), 14 Days After Application, read-out: Visual Growth Reduction (%) CYPES
[16] = ALOMY: blackgrass (Alopecurus myosuroides), 14 days after application, read-out: Visual Growth Reduction (%) 14 Days After Application, ALOMY
[17] = AMARE: redroot pigweed (Amaranthus retroflexus), 14 days after application, read-out: Visual Growth Reduction (%) 14 Days After Application, AMARE
[18] = AVEFA: wild oat (Avena fatua), 14 days after application, read-out: Visual Growth Reduction (%) 14 Days After Application, AVEFA
[19] = CHEAL: lambsquarters (Chenopodium album), 14 days after application, read-out: Visual Growth Reduction (%) 14 Days After Application, CHEAL
[20] = CIRAR: canada thistle (Cirsium arvense), 14 days after application, read-out: Visual Growth Reduction (%) 14 Days After Application, CIRAR
[21] = CYPES: yellow nutsedge (Cyperus esculentus), 14 days after application, read-out: Visual Growth Reduction (%) 14 Days After Application, CYPES
[22] = DIGSA: crabgrass (Digitaria sanguinalis), 14 days after application, read-out: Visual Growth Reduction (%) 14 Days After Application, DIGSA

Measured: pest or weed control at 140 g/ha

COC(=O)c1nc(-c2ccc3c(c2C)OC(F)(F)O3)c(F)cc1Cl [F233, Methyl 3-chloro-6-(2,2-difluoro-4-methylbenzo[d][1,3]dioxol-5-yl)-5-fluoropicolinate]
75 to 84%: [9]
85 to 94%: [3] | [5] | [6]
45 to 59%: [1] | [7] | [14] | [15]
95 to 100%: [2] | [10] | [11] | [12] | [13]
0 to 29%: [4]
60 to 74%: [8]

COC(=O)c1cc(Cl)cc(-c2ccc(C(F)(F)F)cc2Cl)n1 [F57, Methyl 4-chloro-6-(2-chloro-4-(trifluoromethyl)phenyl)picolinate]
0 to 29%: [16] | [17] | [18] | [19] | [20] | [21] | [22] | [1] | [2] | [3] | [4] | [5] | [6] | [7] | [8]

COC(=O)c1nc(-c2ccc(C(F)(F)C#N)cc2Cl)ccc1Cl [F178, Methyl 3-chloro-6-(2-chloro-4-(cyanodifluoromethyl)phenyl)picolinate]
0 to 29%: [16] | [17] | [18] | [19] | [20] | [21] | [22] | [1] | [2] | [3] | [4] | [5] | [6] | [7] | [8]

Cc1cnc(-c2ccc(Cl)c(C(=O)O)n2)c(F)c1 [F208, 5-Chloro-3′-fluoro-5′-methyl-[2,2′-bipyridine]-6-carboxylic acid]
0 to 29%: [1] | [2] | [3] | [4] | [5] | [6] | [7] | [8] | [9] | [10] | [11] | [13] | [14] | [15]
85 to 94%: [12]
